Marks after values point to notes of the source that are not given here.
Legend:
[1] = Amount of generated hydroxyl radicals using metal oxides and hydroxides, HPF reagent (Example 15); conditions: left shaded for 1 hour; 100% = 0.1% titanium oxide irradiated with room light 30 minutes
[2] = Amount of generated hydroxyl radicals under shaded condition or room light, HPF reagent (Example 14); conditions: measured 1 hour after preparation
[3] = Quantification of hydroxyl radical production by HPF fluorescence intensity (Examples 13 and 18); conditions: HPF 5 μM, room temperature 15 minutes; for Amount of generated radicals: 0.1 M phosphoric acid buffer, fluorescence intensity
[4] = Amount of generated hydroxyl radicals using combinations of calcium hydroxide, magnesium oxide and magnesium hydroxide (Example 17); conditions: left shaded for 72 hours; total 1% by weight; only calcium hydroxide = 100%
Description: Specifically, each reagent was mixed as described below to prepare a specimen to be measured using a suspension of a metal oxide and/or a hydroxide in a manner similar to Example 15. HPF reagent (Daiichi Pure Chemicals Co., Ltd.): 0.1 μL 0.5 M phosphoric acid buffer (pH 7.0): 20 μL Pure water: 49.9 μL Each suspension: 30 μL Table 7 indicates the concentrations and amounts of metal oxide and/or hydroxide in each specimen to be measured. [table]

[5] = Duration of hydroxyl radical generation, HPF reagent (Example 16); conditions: shaded, 100% = 0.1% titanium oxide irradiated with room light 30 minutes
spike proteins = spike proteins (Severe acute respiratory syndrome coronavirus, UniProt P59594)
[6] = Shaded, 100% = 0.1% titanium oxide irradiated 30 minutes

Compound	Amount of generated hydroxyl radicals (% of control) [1]	Amount of generated radicals [3]	Amount of generated hydroxyl radicals % of activity in Ca(OH)2 [4]	Amount of generated hydroxyl radicals (% of control) After 1 hour [5]	Amount of generated hydroxyl radicals (% of control) After 12 hours [5]	further results
[K+].[OH-] [Potassium hydroxide (1%), potassium hydroxide]	2.88 % of control	–	–	–	–	–
[Mg+2].[OH-].[OH-] [Magnesium hydroxide (1%), magnesium hydroxide]	26.17 % of control	11907	144.14 % of activity in Ca(OH)2	26.17 % of control	62.18 % of control	Amount of generated hydroxyl radicals [2, 6]: 28.33%
[Na+].[OH-] [Sodium hydroxide (1%), sodium hydroxide]	3.29 % of control	–	–	–	–	–
[O]=[Mg] [Magnesium oxide (1%), magnesium oxide, reference compound]	15.07 % of control	3918	77.84 % of activity in Ca(OH)2	15.07 % of control	34.15 % of control	–
O=C([O-])c1ccccc1O.[Na+] [sodium salicylate]	–	–	–	–	–	bands corresponding to spike proteins, electrophoresis without a reducing agent (spike proteins): recovery of bands corresponding to spike proteins was confirmed
[Ca+2].[OH-].[OH-] [Calcium hydroxide (1%), calcium hydroxide]	14.27 % of control	6236	100.00 % of activity in Ca(OH)2	14.27 % of control	47.49 % of control	–
[Mg+2].[OH-].[OH-] [specimen No. 7, magnesium hydroxide]	–	–	–	–	–	amounts of generated radicals (rank order) ([3]; comparison of specimens Nos. 7, 8 and 3): specimen No. 7>specimen No. 8>specimen No. 3
[O]=[Ti]=[O] [0.1% titanium oxide, titanium oxide]	–	–	–	–	–	Amount of generated hydroxyl radicals ([2]; Irradiated with room light for 30 minutes then shaded, this value assumed to be 100%): 100^1) %; Amount of generated hydroxyl radicals [2, 6]: 3.92%

From patent US20100329971A1, “NOVEL HYDROXY RADICAL GENERATION METHOD, AND ANTI-VIRAL MATERIAL UTILIZING HYDROXYL RADICAL GENERATED BY THE METHOD” (MOCHIGASE CO., LTD., priority 2008, published 2010)
